# From article PMC6199744, “Development of Chemical Proteomics for the Folateome and Analysis of the Kinetoplastid Folateome” (ACS Infectious Diseases, 2018)
# Where two headings read alike, the source gives them in different places.
# Experiments:
# Format in all cases: binding
# [1] = biological target: T1, HeLa cell extract proteins (Homo sapiens, UniProt Q6PJG6)
# T1 construct: endogenous in cells; host or cells: HeLa cell extract
# T1 sequence (Q6PJG6 1-821): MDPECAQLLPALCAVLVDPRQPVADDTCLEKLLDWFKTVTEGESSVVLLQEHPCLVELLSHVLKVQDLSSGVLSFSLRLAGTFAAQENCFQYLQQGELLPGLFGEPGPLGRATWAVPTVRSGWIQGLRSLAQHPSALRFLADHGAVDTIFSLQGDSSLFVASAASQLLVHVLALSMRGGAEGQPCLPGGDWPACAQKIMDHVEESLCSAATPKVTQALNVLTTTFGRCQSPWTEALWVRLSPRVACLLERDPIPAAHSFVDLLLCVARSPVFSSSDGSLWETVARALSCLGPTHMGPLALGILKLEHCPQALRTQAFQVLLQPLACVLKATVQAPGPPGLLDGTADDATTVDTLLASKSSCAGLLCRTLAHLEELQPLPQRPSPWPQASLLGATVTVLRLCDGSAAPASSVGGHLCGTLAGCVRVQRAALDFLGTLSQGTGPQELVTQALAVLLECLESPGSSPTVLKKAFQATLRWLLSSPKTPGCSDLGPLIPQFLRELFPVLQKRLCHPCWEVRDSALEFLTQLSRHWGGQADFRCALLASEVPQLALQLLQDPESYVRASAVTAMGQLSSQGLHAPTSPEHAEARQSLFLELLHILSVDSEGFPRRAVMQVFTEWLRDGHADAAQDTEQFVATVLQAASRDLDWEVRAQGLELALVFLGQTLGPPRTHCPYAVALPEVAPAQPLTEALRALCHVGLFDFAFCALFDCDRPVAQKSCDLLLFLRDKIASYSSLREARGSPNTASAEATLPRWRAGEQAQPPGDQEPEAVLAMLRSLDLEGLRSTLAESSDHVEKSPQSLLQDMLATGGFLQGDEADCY
# [2] = biological target: T2, HeLa cell extract proteins (Homo sapiens, UniProt P60510)
# T2 construct: endogenous in cells; host or cells: HeLa cell extract
# T2 sequence (P60510 1-307): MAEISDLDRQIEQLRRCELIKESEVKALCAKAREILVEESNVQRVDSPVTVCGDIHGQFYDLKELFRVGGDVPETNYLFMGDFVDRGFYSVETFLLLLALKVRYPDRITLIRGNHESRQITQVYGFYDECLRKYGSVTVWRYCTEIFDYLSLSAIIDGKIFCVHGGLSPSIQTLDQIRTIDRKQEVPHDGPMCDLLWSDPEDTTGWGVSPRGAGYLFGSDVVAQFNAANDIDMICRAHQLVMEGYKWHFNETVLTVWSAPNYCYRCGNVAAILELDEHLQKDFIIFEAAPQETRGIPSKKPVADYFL
# [3] = biological target: T3, HeLa cell extract proteins (Homo sapiens, UniProt O95817)
# T3 construct: endogenous in cells; host or cells: HeLa cell extract
# T3 sequence (O95817 whole entry): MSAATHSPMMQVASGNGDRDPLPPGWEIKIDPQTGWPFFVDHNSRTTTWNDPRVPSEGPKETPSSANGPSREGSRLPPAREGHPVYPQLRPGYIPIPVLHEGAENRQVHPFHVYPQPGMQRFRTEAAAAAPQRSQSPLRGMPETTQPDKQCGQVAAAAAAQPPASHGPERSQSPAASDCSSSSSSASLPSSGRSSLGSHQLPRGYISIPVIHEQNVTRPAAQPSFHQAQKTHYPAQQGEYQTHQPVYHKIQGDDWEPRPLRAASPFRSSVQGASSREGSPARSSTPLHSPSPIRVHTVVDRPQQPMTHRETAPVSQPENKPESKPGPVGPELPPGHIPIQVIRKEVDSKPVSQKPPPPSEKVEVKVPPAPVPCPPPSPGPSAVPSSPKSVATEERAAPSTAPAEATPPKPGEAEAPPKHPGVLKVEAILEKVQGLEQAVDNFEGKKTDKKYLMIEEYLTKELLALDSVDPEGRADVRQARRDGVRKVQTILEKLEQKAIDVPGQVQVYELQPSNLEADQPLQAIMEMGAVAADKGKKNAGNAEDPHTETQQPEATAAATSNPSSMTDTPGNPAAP
# [4] = biological target: T4, HeLa cell extract proteins (Homo sapiens, UniProt Q9UNM6)
# T4 construct: endogenous in cells; host or cells: HeLa cell extract
# T4 sequence (Q9UNM6 1-376): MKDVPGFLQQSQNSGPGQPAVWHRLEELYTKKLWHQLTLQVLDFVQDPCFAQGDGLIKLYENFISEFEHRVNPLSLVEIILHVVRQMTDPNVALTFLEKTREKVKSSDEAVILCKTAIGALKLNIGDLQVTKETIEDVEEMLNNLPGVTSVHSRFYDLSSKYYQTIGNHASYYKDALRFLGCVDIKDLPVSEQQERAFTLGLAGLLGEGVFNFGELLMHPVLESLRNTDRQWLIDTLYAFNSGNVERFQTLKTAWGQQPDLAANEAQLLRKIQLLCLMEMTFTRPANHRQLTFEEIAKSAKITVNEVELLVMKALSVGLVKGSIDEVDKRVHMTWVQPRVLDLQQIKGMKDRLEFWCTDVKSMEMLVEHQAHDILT
# [5] = biological target: T5, HeLa cell extract proteins (Homo sapiens, UniProt Q15020)
# T5 construct: endogenous in cells; host or cells: HeLa cell extract
# T5 sequence (Q15020 1-963): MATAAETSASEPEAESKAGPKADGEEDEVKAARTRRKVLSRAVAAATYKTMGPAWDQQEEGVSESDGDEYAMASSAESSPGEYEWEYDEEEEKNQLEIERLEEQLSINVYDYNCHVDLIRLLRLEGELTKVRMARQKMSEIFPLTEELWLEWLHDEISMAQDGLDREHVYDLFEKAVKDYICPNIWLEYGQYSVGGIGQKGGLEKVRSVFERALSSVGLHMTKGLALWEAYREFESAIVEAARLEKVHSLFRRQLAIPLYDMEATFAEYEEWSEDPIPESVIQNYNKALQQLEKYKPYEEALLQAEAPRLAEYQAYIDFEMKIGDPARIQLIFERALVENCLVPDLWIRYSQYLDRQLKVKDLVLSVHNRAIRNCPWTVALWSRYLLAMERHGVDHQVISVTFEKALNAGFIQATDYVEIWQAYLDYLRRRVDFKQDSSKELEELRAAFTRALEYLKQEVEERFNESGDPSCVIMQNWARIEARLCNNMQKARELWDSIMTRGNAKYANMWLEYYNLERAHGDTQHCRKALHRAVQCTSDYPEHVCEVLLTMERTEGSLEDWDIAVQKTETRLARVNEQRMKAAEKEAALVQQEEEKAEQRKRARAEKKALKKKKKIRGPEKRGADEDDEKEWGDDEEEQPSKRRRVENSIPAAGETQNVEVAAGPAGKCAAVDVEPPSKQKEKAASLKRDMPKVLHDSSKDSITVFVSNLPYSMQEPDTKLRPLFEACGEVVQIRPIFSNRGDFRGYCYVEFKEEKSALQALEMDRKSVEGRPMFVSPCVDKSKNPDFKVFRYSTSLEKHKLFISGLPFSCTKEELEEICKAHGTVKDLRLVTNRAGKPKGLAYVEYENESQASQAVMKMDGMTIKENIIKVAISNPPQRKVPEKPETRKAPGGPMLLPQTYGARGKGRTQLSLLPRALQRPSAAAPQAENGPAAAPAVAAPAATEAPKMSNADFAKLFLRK
# [6] = biological target: T6, HeLa cell extract proteins (Homo sapiens, UniProt O60232)
# T6 construct: endogenous in cells; host or cells: HeLa cell extract
# T6 sequence (O60232 1-199): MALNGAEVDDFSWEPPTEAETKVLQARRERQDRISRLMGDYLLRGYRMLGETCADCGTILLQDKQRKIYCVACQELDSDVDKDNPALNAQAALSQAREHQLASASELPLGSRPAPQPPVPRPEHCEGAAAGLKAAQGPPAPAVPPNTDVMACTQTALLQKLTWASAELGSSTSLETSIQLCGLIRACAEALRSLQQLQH
Structure (SMILES),"fold changes relative to vehicle control ([1]; HeLa, protein C7ORF27)","fold changes relative to vehicle control ([2]; protein PPP4C, HeLa)","fold changes relative to vehicle control ([3]; HeLa, protein BAG3)","fold changes relative to vehicle control ([4]; protein PSMD13, HeLa)","fold changes relative to vehicle control ([5]; protein SART3, HeLa)","fold changes relative to vehicle control ([6]; protein SSSCA1, HeLa)",fold changes relative to vehicle control [1],fold changes relative to vehicle control [2],fold changes relative to vehicle control [3],fold changes relative to vehicle control [4],fold changes relative to vehicle control [5],fold changes relative to vehicle control [6]
"Nc1nc2c(c(=O)[nH]1)N(C=O)C(CNc1ccc(C(=O)N[C@@H](CCC(=O)O)C(=O)O)cc1)CN2 (stereo partly drawn) [LEU, leucovorin]",0.75,0.82,0.91,0.95,0.82,0.95,,,,,,
"Nc1nc2[nH]cc(CCc3ccc(C(=O)N[C@@H](CCC(=O)O)C(=O)O)cc3)c2c(=O)[nH]1 [PTX, pemetrexed]",,,,,,,0.88,0.95,0.96,0.88,0.84,0.94
NCCOCCOCC(=O)Nc1nc2ncc(CNc3ccc(C(=O)NC(CCC(=O)O)C(=O)O)cc3)nc2c(=O)[nH]1 (stereo not drawn) [compound 6],1.02,0.95,1.17,1.02,0.89,1.13,,,,,,
NCCCNc1ccc(C(=O)NC(CCC(=O)O)C(=O)O)cc1 (stereo not drawn) [compound 7],0.87,1,0.89,0.86,0.94,1.07,,,,,,
